Test results reported in paper PMC10850954, “HDAC6/aggresome processing pathway importance for inflammasome formation is context-dependent” (The Journal of Biological Chemistry, 2024).

Biological target: T1, HDAC6 (Homo sapiens, UniProt Q9UBN7)
T1 sequence (Q9UBN7 1-1215): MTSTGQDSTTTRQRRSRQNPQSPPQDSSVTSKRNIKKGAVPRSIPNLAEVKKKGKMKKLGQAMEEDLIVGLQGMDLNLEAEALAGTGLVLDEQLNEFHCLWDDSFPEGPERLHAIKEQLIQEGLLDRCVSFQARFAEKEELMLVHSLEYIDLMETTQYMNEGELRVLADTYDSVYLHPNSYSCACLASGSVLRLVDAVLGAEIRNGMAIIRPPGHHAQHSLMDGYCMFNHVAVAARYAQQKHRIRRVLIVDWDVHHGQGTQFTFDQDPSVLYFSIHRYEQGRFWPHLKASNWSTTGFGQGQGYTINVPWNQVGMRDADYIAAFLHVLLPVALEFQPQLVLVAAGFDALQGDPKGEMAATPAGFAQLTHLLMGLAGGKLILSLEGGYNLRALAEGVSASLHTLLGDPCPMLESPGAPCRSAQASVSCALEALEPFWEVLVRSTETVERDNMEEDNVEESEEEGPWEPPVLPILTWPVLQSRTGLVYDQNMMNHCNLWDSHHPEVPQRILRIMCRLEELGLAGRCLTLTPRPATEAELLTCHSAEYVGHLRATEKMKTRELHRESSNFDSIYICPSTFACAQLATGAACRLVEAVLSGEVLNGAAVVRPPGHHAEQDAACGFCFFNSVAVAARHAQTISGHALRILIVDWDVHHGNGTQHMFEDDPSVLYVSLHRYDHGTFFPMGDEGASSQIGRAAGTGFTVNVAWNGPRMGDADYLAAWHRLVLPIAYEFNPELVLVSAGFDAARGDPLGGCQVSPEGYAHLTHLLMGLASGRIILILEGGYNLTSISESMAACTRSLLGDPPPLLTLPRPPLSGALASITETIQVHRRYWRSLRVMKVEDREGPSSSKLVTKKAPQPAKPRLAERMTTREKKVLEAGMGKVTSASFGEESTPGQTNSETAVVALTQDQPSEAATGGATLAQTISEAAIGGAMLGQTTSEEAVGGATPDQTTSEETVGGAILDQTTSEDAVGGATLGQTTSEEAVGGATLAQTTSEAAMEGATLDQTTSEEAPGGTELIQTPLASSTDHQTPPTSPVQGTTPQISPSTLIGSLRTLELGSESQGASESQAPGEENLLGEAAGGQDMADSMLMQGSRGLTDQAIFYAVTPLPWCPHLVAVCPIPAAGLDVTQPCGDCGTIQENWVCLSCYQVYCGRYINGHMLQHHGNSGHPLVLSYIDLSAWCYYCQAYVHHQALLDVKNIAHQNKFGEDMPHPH
Experiment: HDAC6 degradation in PBMCs (immunoblot)
Format: cell-based
Parameters: endogenous in cells; host or cells: PBMCs (with or without LPS priming)
Details: XY-07-35 at 1 μM
Description: Figure 3 Effect of […] mediated HDAC6 degradation on NLRP3 inflammasome activation in PBMCs.A, schematic of the mode of action of an HDAC6 degrader. The PROTAC engages both HDAC6 and the E3 ligase cereblon (CRBN), which then leads to ubiquitination and degradation of HDAC6. B, chemical structure of the HDAC6 degrader XY-07-35 and of the negative control XY-07-191 which no longer recruits CRBN. C, in vitro enzymatic assay of compound XY-07-35 on the activity of different HDACs. IC50 for each enzyme is shown. D, XY-07-35 mediated HDAC6 degradation in PBMCs. PBMCs (without or with LPS priming for 4 h) were treated with the indicated compounds and HDAC6 levels were detected by immunoblotting with an anti-HDAC6 antibody. Detection of actin was used as a control for loading. CGP, CGP084892 (Caspase-1 inhibitor); AFN700 is an inhibitor of the NF-kB pathway (IKK inhibitor). E, HDAC6 degradation impact on IL-1β release in PBMCs following MSU 200 μg/ml (5 h), nigericin 2 μM (2 h) or ATP 3 mM (0.5 h) treatment. Cells were first primed with 0.2 ng/ml LPS for 4 h at 37 °C, then treated with MSU, nigericin, and ATP as indicated. […]
Treated BMDM cells were lysed with RIPA buffer (supplied with cOmplete Protease Inhibitor Cocktail, Merck#11697498001), and protein concentration was determined by Bradford assay. […]

SMILES	HDAC6 degradation / effect on HDAC6 levels
CN(C(=O)CCCNc1cccc2c1C(=O)N(C1CCC(=O)NC1=O)C2=O)c1ccc(NC(=O)CCCCCCC(=O)NO)cc1 (centres unmarked) [XY-07-35]	efficiently degraded
CN1C(=O)CCC(N2C(=O)c3cccc(NCCCC(=O)N(C)c4ccc(NC(=O)CCCCCCC(=O)NO)cc4)c3C2=O)C1=O (centres unmarked) [XY-07-191]	only minimal or no effect on HDAC6 levels
